Measured values taken from US4971967A, “Quinolinecarboxylic acid derivatives, antibacterial compositions and use” (Kanebo Ltd, priority 1989, dated 1990).
Converted amounts (≈) assume the structure as drawn. Where a name gives a salt, the structure may show the parent alone. Read-outs that look alike come from different tables or passages of the source.

What was measured:
Assay type in all cases: cell-based
[1] = test system: Staphylococcus aureus FDA 209P JC-1; experiment: Antibacterial activity (MIC), S. aureus FDA 209P JC-1; details: FDA209P, read-out: Minimum inhibitory concentration (MIC)
Experimental: (§1) The compounds of the present invention (A, C, D, E, F, G, H, I, J, L, O and P) and the known compound (X) as reference were dissolved in 0.1 N aqueous sodium hydroxide to prepare a solution of 5000 μg/ml in concentration. The compounds of the present invention (B, K, M and N) and the known compound (Y) were dissolved in sterilized distilled water to prepare a solution of 5000 μg/ml in concentration. Each solution was diluted with sterilized distilled water to prepare a standard solution with a concentration of each test compound: 1000 μg/ml. The test was carried out by a method as appointed by Japan Society of Chemotherapy [cf. Chemotherapy, 29, 76-79 (1981)(TOKYO)].

[2] = test system: Staphylococcus aureus IID 803; experiment: Antibacterial activity (MIC), S. aureus IID 803
Experimental: as §1

[3] = test system: Proteus mirabilis IFO 3849; experiment: Antibacterial activity (MIC), Proteus mirabilis IFO 3849; details: IFO3849; Proteus mirabilis IFO 3849, Gram -; read-out: Minimum inhibitory concentration (MIC)
Experimental: as §1

[4] = test system: Escherichia coli KC-14; experiment: Antibacterial activity (MIC), E. coli KC-14
Experimental: as §1

[5] = test system: Serratia marcescens IAM 1184; experiment: Antibacterial activity (MIC), Serratia marcescens IAM 1184; details: for MIC: Serratia marcescens, IAM1184, Serratia marcescens IAM 1184, Gram -, read-out: Minimum inhibitory concentration (MIC)
Experimental: as §1

[6] = test system: Shigella sonnei EW-33; experiment: Antibacterial activity (MIC), Shigella sonnei EW-33; details: for MIC: Shigella sonnei, EW33, Shigella sonnei EW-33, Gram -, read-out: Minimum inhibitory concentration (MIC)
Experimental: as §1

[7] = test system: Proteus vulgaris OX-19; experiment: Antibacterial activity (MIC), Proteus vulgaris OX-19; details: OX19; Proteus vulgaris OX-19, Gram -; read-out: Minimum inhibitory concentration (MIC)
Experimental: as §1

[8] = test system: Pseudomonas aeruginosa NCTC 10490; experiment: Antibacterial activity (MIC), P. aeruginosa NCTC 10490; details: for MIC: Pseudomonas aeruginosa, NCTC10490, Pseudomonas aeruginosa NCTC 10490, Gram -, read-out: Minimum inhibitory concentration (MIC)
Experimental: as §1

[9] = test system: Escherichia coli NIHJ JC-2; experiment: Antibacterial activity (MIC), E. coli NIHJ JC-2
Experimental: as §1

[10] = test system: Pseudomonas aeruginosa IFO 3445; experiment: Antibacterial activity (MIC), P. aeruginosa IFO 3445; details: for MIC: Pseudomonas aeruginosa, IFO3445, Pseudomonas aeruginosa IFO 3445, Gram -, read-out: Minimum inhibitory concentration (MIC)
Experimental: as §1

[11] = test system: Streptococcus faecalis IID 682; experiment: Antibacterial activity (MIC), Streptococcus faecalis IID 682; details: Enterococcus faecalis
Experimental: as §1

[12] = test system: Pseudomonas aeruginosa E-2; experiment: Antibacterial activity (MIC), P. aeruginosa E-2; details: E2; Pseudomonas aeruginosa E-2, Gram -; read-out: Minimum inhibitory concentration (MIC)
Experimental: as §1

[13] = test system: Bacillus subtilis ATCC 6633; experiment: Antibacterial activity (MIC), Bacillus subtilis ATCC 6633; details: for MIC: Bacillus subtilis, ATCC6633, Bacillus subtilis ATCC 6633, Gram +, read-out: Minimum inhibitory concentration (MIC)
Experimental: as §1

[14] = test system: Enterobacter aerogenes ATCC 13048; experiment: Antibacterial activity (MIC), Enterobacter aerogenes ATCC 13048; details: Klebsiella aerogenes
Experimental: as §1

[15] = test system: Salmonella typhimurium IID 971; experiment: Antibacterial activity (MIC), Salmonella typhimurium IID 971; details: Salmonella enterica, read-out: Minimum inhibitory concentration (MIC)
Experimental: as §1

[16] = test system: Enterobacter cloacae 963; experiment: Antibacterial activity (MIC), Enterobacter cloacae 963
Experimental: as §1

[17] = test system: Citrobacter freundii NIHJ 10018-68; experiment: Antibacterial activity (MIC), Citrobacter freundii NIHJ 10018-68; details: for MIC: Citrobacter freundii, NIHJ10018, Citrobacter freundii NIHJ 10018-68, Gram -, read-out: Minimum inhibitory concentration (MIC)
Experimental: as §1

[18] = test system: Morganella morganii IFO 3848; experiment: Antibacterial activity (MIC), Morganella morganii IFO 3848; details: for MIC: Morganella morganii, IFO3848, Morganella morganii IFO 3848, Gram -, read-out: Minimum inhibitory concentration (MIC)
Experimental: as §1

[19] = test system: Micrococcus luteus ATCC 9341; experiment: Antibacterial activity (MIC), Micrococcus luteus ATCC 9341; details: ATCC9341; Micrococcus luteus ATCC 9341, Gram +; read-out: Minimum inhibitory concentration (MIC)
Experimental: as §1

[20] = test system: Klebsiella pneumoniae PCI-602; experiment: Antibacterial activity (MIC), Klebsiella pneumoniae PCI-602; details: PCI602; Klebsiella pneumoniae PCI-602, Gram -; read-out: Minimum inhibitory concentration (MIC)
Experimental: as §1

[21] = test system: Staphylococcus epidermidis IAM-1296; experiment: Antibacterial activity (MIC), S. epidermidis IAM-1296; details: for MIC: Staphylococcus epidermidis
Experimental: as §1

[22] = test system: Acinetobacter calcoaceticus AC 54; experiment: Antibacterial activity (MIC), Acinetobacter calcoaceticus AC 54; details: AC54; Acinetobacter calcoaceticus AC 54, Gram -; read-out: Minimum inhibitory concentration (MIC)
Experimental: as §1

[23] = Staphylococcus aureus FDA 209P JC-1, Gram +
[24] = IID803, Staphylococcus aureus IID 803, Gram +, read-out: Minimum inhibitory concentration (MIC)
[25] = KC14, Escherichia coli KC-14, Gram -, read-out: Minimum inhibitory concentration (MIC)
[26] = NIHJJC2, Escherichia coli NIHJ JC-2, Gram -, read-out: Minimum inhibitory concentration (MIC)
[27] = IID682, read-out: Minimum inhibitory concentration (MIC)
[28] = ATCC13048, Enterobacter aerogenes ATCC 13048, Gram -, read-out: Minimum inhibitory concentration (MIC)
[29] = Enterobacter cloacae, 963, Enterobacter cloacae 963, Gram -, read-out: Minimum inhibitory concentration (MIC)
[30] = IAM1296, Staphylococcus epidermidis IAM-1296, Gram +, read-out: Minimum inhibitory concentration (MIC)

SMILES | MIC [3] | MIC [5] | MIC [6] | MIC [7] | MIC [8] | MIC [10] | MIC [12] | MIC [13] | MIC [15] | MIC [17] | MIC [18] | MIC [19] | MIC [20] | MIC [22] | MIC [1, 23] | MIC [2, 24] | MIC [4, 25] | MIC [9, 26] | MIC [11, 27] | MIC [14, 28] | further results
CC1CN(c2c(F)cc3c(=O)c(C(=O)O)c4scc5n4c3c2N(C)C5)CCN1 (stereo not shown) [Compound (D), 9,1-(Methylimino)methano-7-fluoro-8-(3-methyl-1-piperazinyl)-5-oxo-5H-thiazolo[3,2-a]quinoline-4-carboxylic acid] | 0.2 µg/mL (≈ 0.497 µM) | 0.39 µg/mL (≈ 0.969 µM) | 0.05 µg/mL (≈ 0.124 µM) | 0.006 µg/mL (≈ 0.0149 µM) | 0.39 µg/mL (≈ 0.969 µM) | 0.78 µg/mL (≈ 1.94 µM) | 0.78 µg/mL (≈ 1.94 µM) | 0.006 µg/mL (≈ 0.0149 µM) | 0.05 µg/mL (≈ 0.124 µM) | 0.39 µg/mL (≈ 0.969 µM) | 0.1 µg/mL (≈ 0.248 µM) | 0.39 µg/mL (≈ 0.969 µM) | 0.006 µg/mL (≈ 0.0149 µM) | 0.025 µg/mL (≈ 0.0621 µM) | – | – | – | – | – | – | MIC ([1]; Staphylococcus aureus): 0.05 µg/mL (≈ 0.124 µM); MIC ([2]; Staphylococcus aureus, IID803, read-out: Minimum inhibitory concentration (MIC)): 0.05 µg/mL (≈ 0.124 µM); MIC ([4]; Escherichia coli, KC14, read-out: Minimum inhibitory concentration (MIC)): 0.05 µg/mL (≈ 0.124 µM); MIC ([9]; Escherichia coli, NIHJJC2, read-out: Minimum inhibitory concentration (MIC)): 0.05 µg/mL (≈ 0.124 µM); MIC ([11]; IID682, Streptococcus faecalis IID 682, Gram +, read-out: Minimum inhibitory concentration (MIC)): 0.1 µg/mL (≈ 0.248 µM); MIC ([14]; ATCC13048, read-out: Minimum inhibitory concentration (MIC)): 0.05 µg/mL (≈ 0.124 µM); MIC ([16]; Enterobacter cloacae, 963, read-out: Minimum inhibitory concentration (MIC)): 0.05 µg/mL (≈ 0.124 µM); MIC ([21]; IAM1296, read-out: Minimum inhibitory concentration (MIC)): 0.05 µg/mL (≈ 0.124 µM)
CN1Cc2csc3c(C(=O)O)c(=O)c4cc(F)c(N5CCCC5)c1c4n23 [Compound (F), 9,1-(Methylimino)methano-7-fluoro-8-(1-pyrrolidinyl)-5-oxo-5H-thiazolo[3,2-a]quinoline-4-carboxylic acid] | 0.39 µg/mL (≈ 1.04 µM) | 0.78 µg/mL (≈ 2.09 µM) | 0.1 µg/mL (≈ 0.268 µM) | 0.025 µg/mL (≈ 0.067 µM) | 0.39 µg/mL (≈ 1.04 µM) | 0.78 µg/mL (≈ 2.09 µM) | 0.39 µg/mL (≈ 1.04 µM) | 0.006 µg/mL (≈ 0.0161 µM) | – | 1.56 µg/mL (≈ 4.18 µM) | 0.39 µg/mL (≈ 1.04 µM) | 0.39 µg/mL (≈ 1.04 µM) | 0.006 µg/mL (≈ 0.0161 µM) | 0.006 µg/mL (≈ 0.0161 µM) | 0.0125 µg/mL (≈ 0.0335 µM) | 0.0125 µg/mL (≈ 0.0335 µM) | 0.2 µg/mL (≈ 0.536 µM) | 0.2 µg/mL (≈ 0.536 µM) | 0.1 µg/mL (≈ 0.268 µM) | 0.39 µg/mL (≈ 1.04 µM) | MIC ([15]; Salmonella typhimurium IID 971, Gram -): 0.2 µg/mL (≈ 0.536 µM); MIC [16, 29]: 0.39 µg/mL (≈ 1.04 µM); MIC [21, 30]: 0.025 µg/mL (≈ 0.067 µM)
CN1Cc2csc3c(C(=O)O)c(=O)c4cc(F)c(N5CCOCC5)c1c4n23 [Compound (I), 9,1-(Methylimino)methano-7-fluoro-8-morpholino-5-oxo-5H-thiazolo[3,2-a]quinoline-4-carboxylic acid] | 0.1 µg/mL (≈ 0.257 µM) | 0.39 µg/mL (≈ 1 µM) | 0.05 µg/mL (≈ 0.128 µM) | 0.025 µg/mL (≈ 0.0642 µM) | 0.2 µg/mL (≈ 0.514 µM) | 0.39 µg/mL (≈ 1 µM) | 0.39 µg/mL (≈ 1 µM) | 0.006 µg/mL (≈ 0.0154 µM) | 0.05 µg/mL (≈ 0.128 µM) | 0.78 µg/mL (≈ 2 µM) | 0.1 µg/mL (≈ 0.257 µM) | 0.1 µg/mL (≈ 0.257 µM) | 0.006 µg/mL (≈ 0.0154 µM) | 0.006 µg/mL (≈ 0.0154 µM) | 0.006 µg/mL (≈ 0.0154 µM) | 0.006 µg/mL (≈ 0.0154 µM) | 0.1 µg/mL (≈ 0.257 µM) | 0.1 µg/mL (≈ 0.257 µM) | 0.05 µg/mL (≈ 0.128 µM) | 0.2 µg/mL (≈ 0.514 µM) | MIC [16, 29]: 0.1 µg/mL (≈ 0.257 µM); MIC [21, 30]: 0.025 µg/mL (≈ 0.0642 µM)
CN1CCN(c2c(F)cc3c(=O)c(C(=O)O)c4scc5n4c3c2N(C)C5)CC1 [Compound (B), 9,1-(Methylimino)methano-7-fluoro-8-(4-methyl-1-piperazinyl)-5-oxo-5H-thiazolo [3,2-a]quinoline-4-carboxylic acid hydrochloride] | – | – | – | – | – | – | – | – | – | – | – | – | – | 0.05 µg/mL | – | – | – | – | – | – | Minimum inhibitory concentration (MIC) ([5]; Serratia marcescens IAM 1184, Gram -, hydrochloride): 0.39 µg/mL; Minimum inhibitory concentration (MIC) ([6]; Shigella sonnei EW-33, Gram -, hydrochloride): 0.05 µg/mL; Minimum inhibitory concentration (MIC) ([8]; Pseudomonas aeruginosa NCTC 10490, Gram -, hydrochloride): 0.39 µg/mL; Minimum inhibitory concentration (MIC) ([10]; Pseudomonas aeruginosa IFO 3445, Gram -, hydrochloride): 0.78 µg/mL; Minimum inhibitory concentration (MIC) ([13]; Bacillus subtilis ATCC 6633, Gram +, hydrochloride): 0.025 µg/mL; Minimum inhibitory concentration (MIC) ([16]; Enterobacter cloacae 963, Gram -, hydrochloride): 0.10 µg/mL; Minimum inhibitory concentration (MIC) ([17]; Citrobacter freundii NIHJ 10018-68, Gram -, hydrochloride): 0.39 µg/mL; Minimum inhibitory concentration (MIC) ([18]; Morganella morganii IFO 3848, Gram -, hydrochloride): 0.10 µg/mL; Minimum inhibitory concentration (MIC) ([21]; Staphylococcus epidermidis IAM-1296, Gram +, hydrochloride): 0.10 µg/mL
